Measured values published in ChEMBL document CHEMBL1201862, “PubChem BioAssay data set” (2004).
Blank lines part the entries; values can stand above or below the compound they belong to. Calls of active or inactive are those of the source.

What was measured:
Format in all cases: functional
[1] = system: CHO-K1; assay: (§1) Counterscreen for antagonists of the orexin 1 receptor (OX1R; HCRTR1): Homogeneous time resolved fluorescence (HTRF)-based cell-based dose response assay to identify antagonists of the parental CHO-K1 cell line. [Related pubchem assays (depositor defined):AID434989, AID435008, AID463079, AID485270, AID492963, AID492964, AID492965, AID493232, AID504699, AID504701]; settings: Cricetulus griseus
[2] = as §1, with “Fluorescence-based” for “Homogeneous time resolved fluorescence (HTRF)-based”, “cell-based high throughput” for “cell-based”, “CHO” for “CHO-K1”
[3] = target: T1, Orexin/Hypocretin receptor type 1 (Homo sapiens, UniProt O43613); assay: Homogeneous Time Resolved Fluorescence (HTRF)-based cell-based high throughput dose response assay for antagonists of the orexin 1 receptor (OX1R; HCRTR1). [Related pubchem assays (depositor defined):AID434989, AID435008, AID463079, AID485270, AID492963, AID492964, AID492965, AID493232, AID504717, AID504718]
T1 sequence (O43613 whole entry): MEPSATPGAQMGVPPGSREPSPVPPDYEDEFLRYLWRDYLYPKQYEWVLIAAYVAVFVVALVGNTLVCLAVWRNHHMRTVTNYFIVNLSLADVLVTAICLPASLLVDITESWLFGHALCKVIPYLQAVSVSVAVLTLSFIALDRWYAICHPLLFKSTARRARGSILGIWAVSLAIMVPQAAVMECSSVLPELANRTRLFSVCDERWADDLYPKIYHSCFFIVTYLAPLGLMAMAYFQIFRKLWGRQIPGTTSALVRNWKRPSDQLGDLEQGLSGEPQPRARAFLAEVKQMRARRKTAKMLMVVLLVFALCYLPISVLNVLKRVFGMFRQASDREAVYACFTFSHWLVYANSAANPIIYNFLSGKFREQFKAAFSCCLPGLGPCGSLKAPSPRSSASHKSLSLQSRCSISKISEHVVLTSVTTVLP

[4] = target: T1, Orexin/Hypocretin receptor type 1; assay: Fluorescence-based cell-based high throughput dose response assay for antagonists of the orexin 1 receptor (OX1R; HCRTR1). [Related pubchem assays (depositor defined):AID434989, AID435008, AID463079, AID485270, AID492963, AID492964, AID492965, AID493232, AID504717, AID504718]
[5] = target: T2, Orexin receptor type 2 (Homo sapiens, UniProt O43614); assay: Counterscreen assay for antagonists of the orexin 1 receptor (OX1R; HCRTR1): Fluorescence-based cell-based dose response assay for antagonists of the orexin 2 receptor (OX2R; HCRTR2), run by assay provider.
T2 sequence (O43614 whole entry): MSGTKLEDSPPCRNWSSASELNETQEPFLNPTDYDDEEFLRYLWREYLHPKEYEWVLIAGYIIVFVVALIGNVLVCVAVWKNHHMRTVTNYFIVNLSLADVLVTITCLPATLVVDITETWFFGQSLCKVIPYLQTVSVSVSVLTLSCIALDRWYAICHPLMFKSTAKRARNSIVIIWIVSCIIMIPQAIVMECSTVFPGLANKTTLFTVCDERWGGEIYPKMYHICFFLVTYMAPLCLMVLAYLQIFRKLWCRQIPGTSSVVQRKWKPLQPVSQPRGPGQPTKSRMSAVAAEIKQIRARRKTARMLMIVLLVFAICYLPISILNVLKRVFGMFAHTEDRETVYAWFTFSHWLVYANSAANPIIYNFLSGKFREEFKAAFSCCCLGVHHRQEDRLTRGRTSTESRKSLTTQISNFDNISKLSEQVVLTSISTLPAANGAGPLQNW

[6] = target: T2, Orexin receptor type 2; assay: Counterscreen assay for antagonists of the orexin 1 receptor (OX1R; HCRTR1): Homogeneous Time Resolved Fluorescence (HTRF)-based cell-based dose response assay for antagonists of the orexin 2 receptor (OX2R; HCRTR2), run by assay provider.
[7] = target: Calcium/calmodulin-dependent protein kinase type II subunit gamma (Homo sapiens, UniProt Q13555)
[8] = target: Calcium/calmodulin-dependent protein kinase type II subunit delta (Homo sapiens, UniProt Q13557)
[9] = target: Serine/threonine-protein kinase TAO1 (Homo sapiens, UniProt Q7L7X3)
[10] = target: Receptor-type tyrosine-protein kinase FLT3 (Homo sapiens, UniProt P36888);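 note: FLT3 was tested as one member of a kinome-wide kinase panel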
[11] = target: Calcium/calmodulin-dependent protein kinase type II subunit beta (Homo sapiens, UniProt Q13554)
[12] = target: Aurora kinase B (Homo sapiens, UniProt Q96GD4)
Chain of Aurora kinase B (Q96GD4 whole entry): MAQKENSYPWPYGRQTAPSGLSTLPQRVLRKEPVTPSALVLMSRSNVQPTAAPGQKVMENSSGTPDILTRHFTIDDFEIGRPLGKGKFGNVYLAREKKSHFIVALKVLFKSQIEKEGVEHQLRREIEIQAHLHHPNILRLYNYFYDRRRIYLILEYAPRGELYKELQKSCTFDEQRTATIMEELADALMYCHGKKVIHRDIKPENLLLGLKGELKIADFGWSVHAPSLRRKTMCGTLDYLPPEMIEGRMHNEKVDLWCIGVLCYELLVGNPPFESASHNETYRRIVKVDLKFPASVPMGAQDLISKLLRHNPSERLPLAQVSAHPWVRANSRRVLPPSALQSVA

[13] = target: SRSF protein kinase 1 (Homo sapiens, UniProt Q96SB4);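 note: measured as one member of a kinome-wide kinase profiling panel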
[14] = target: Mitogen-activated protein kinase kinase kinase kinase 4 (Homo sapiens, UniProt O95819)
[15] = target: Tyrosine-protein kinase JAK2 (Homo sapiens, UniProt O60674);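 note: JAK2 tested as one member of a kinase panel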
[16] = target: Serine/threonine-protein kinase D2 (Homo sapiens, UniProt Q9BZL6);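 note: measured against PRKD2 as one member of a kinome-wide kinase profiling panel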
Chain of Serine/threonine-protein kinase D2 (Q9BZL6 whole entry): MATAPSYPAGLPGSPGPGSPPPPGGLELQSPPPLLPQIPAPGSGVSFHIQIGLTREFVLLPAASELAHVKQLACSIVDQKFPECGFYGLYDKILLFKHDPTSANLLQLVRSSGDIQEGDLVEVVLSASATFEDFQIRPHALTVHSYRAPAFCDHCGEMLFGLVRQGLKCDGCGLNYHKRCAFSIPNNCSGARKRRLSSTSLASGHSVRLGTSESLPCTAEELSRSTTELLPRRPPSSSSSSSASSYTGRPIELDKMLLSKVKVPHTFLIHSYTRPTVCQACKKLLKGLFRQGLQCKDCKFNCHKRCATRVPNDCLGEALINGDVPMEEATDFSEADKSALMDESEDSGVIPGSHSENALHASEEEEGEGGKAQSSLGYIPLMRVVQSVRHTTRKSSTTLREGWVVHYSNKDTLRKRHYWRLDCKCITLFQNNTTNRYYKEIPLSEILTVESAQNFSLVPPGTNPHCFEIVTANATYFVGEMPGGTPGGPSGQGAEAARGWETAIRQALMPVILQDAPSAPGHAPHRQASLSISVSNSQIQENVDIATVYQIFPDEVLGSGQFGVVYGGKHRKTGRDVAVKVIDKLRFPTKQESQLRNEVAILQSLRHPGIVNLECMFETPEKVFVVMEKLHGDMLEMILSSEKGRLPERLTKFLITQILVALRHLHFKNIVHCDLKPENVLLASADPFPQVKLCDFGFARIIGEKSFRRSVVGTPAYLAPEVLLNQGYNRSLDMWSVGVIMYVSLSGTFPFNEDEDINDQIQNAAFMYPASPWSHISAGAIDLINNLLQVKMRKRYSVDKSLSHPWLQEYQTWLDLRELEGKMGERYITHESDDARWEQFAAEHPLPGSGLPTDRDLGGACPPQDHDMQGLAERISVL

[17] = target: Activin receptor type-1 (Homo sapiens, UniProt Q04771); assay: Navigating the Kinome. Panel member name: ACVR1
[18] = target: Aurora kinase A (Homo sapiens, UniProt O14965);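 note: value from the Navigating the Kinome kinase panel profiling, panel entry STK6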
[19] = target: Serine/threonine-protein kinase PAK 4 (Homo sapiens, UniProt O96013);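 note: value obtained within a kinome profiling panel in which PAK4 was one of the panel members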
[20] = target: Tyrosine-protein kinase JAK3 (Homo sapiens, UniProt P52333)
[21] = target: Tyrosine-protein kinase Lyn (Homo sapiens, UniProt P07948);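 note: lyn as one member of a kinase panel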
[22] = target: Tyrosine-protein kinase ITK/TSK (Homo sapiens, UniProt Q08881);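 note: affinity for ITK measured as one member of a broad kinase panel profiling binding across the kinome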
[23] = target: Tyrosine-protein kinase Blk (Homo sapiens, UniProt P51451);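 note: obtained as one member of a kinome-wide kinase assay panel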
[24] = target: MAP/microtubule affinity-regulating kinase 3 (Homo sapiens, UniProt P27448);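 note: MARK3 affinity measured as one member of a kinome panel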
[25] = target: Mitogen-activated protein kinase 13 (Homo sapiens, UniProt O15264)
Chain of Mitogen-activated protein kinase 13 (O15264 whole entry): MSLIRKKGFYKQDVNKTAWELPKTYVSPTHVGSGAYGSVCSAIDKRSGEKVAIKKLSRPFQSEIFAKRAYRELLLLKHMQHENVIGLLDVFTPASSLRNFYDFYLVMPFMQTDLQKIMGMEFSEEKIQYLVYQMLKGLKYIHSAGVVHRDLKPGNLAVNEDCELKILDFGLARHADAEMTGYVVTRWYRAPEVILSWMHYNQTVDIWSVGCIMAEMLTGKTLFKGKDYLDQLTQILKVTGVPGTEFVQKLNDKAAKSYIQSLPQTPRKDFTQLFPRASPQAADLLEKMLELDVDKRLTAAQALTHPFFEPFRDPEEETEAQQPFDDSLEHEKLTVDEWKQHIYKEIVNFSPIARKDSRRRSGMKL

[26] = target: Receptor tyrosine-protein kinase erbB-2 (Homo sapiens, UniProt P04626); assay: Navigating the Kinome. Panel member name: ERBB2
[27] = target: Tyrosine-protein kinase ABL1 (Homo sapiens, UniProt P00519)
[28] = target: Vascular endothelial growth factor receptor 2 (Homo sapiens, UniProt P35968)
[29] = target: Insulin-like growth factor 1 receptor (Homo sapiens, UniProt P08069); assay: Navigating the Kinome. Panel member name: IGF1R
[30] = target: Dual specificity tyrosine-phosphorylation-regulated kinase 1B (Homo sapiens, UniProt Q9Y463); assay: Navigating the Kinome. Panel member name: DYRK1B
[31] = target: Leucine-rich repeat serine/threonine-protein kinase 2 (Homo sapiens, UniProt Q5S007);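 note: value from a broad kinome-wide panel profiling study in which LRRK2 was one of the kinases tested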
Chain of Leucine-rich repeat serine/threonine-protein kinase 2 (Q5S007 whole entry): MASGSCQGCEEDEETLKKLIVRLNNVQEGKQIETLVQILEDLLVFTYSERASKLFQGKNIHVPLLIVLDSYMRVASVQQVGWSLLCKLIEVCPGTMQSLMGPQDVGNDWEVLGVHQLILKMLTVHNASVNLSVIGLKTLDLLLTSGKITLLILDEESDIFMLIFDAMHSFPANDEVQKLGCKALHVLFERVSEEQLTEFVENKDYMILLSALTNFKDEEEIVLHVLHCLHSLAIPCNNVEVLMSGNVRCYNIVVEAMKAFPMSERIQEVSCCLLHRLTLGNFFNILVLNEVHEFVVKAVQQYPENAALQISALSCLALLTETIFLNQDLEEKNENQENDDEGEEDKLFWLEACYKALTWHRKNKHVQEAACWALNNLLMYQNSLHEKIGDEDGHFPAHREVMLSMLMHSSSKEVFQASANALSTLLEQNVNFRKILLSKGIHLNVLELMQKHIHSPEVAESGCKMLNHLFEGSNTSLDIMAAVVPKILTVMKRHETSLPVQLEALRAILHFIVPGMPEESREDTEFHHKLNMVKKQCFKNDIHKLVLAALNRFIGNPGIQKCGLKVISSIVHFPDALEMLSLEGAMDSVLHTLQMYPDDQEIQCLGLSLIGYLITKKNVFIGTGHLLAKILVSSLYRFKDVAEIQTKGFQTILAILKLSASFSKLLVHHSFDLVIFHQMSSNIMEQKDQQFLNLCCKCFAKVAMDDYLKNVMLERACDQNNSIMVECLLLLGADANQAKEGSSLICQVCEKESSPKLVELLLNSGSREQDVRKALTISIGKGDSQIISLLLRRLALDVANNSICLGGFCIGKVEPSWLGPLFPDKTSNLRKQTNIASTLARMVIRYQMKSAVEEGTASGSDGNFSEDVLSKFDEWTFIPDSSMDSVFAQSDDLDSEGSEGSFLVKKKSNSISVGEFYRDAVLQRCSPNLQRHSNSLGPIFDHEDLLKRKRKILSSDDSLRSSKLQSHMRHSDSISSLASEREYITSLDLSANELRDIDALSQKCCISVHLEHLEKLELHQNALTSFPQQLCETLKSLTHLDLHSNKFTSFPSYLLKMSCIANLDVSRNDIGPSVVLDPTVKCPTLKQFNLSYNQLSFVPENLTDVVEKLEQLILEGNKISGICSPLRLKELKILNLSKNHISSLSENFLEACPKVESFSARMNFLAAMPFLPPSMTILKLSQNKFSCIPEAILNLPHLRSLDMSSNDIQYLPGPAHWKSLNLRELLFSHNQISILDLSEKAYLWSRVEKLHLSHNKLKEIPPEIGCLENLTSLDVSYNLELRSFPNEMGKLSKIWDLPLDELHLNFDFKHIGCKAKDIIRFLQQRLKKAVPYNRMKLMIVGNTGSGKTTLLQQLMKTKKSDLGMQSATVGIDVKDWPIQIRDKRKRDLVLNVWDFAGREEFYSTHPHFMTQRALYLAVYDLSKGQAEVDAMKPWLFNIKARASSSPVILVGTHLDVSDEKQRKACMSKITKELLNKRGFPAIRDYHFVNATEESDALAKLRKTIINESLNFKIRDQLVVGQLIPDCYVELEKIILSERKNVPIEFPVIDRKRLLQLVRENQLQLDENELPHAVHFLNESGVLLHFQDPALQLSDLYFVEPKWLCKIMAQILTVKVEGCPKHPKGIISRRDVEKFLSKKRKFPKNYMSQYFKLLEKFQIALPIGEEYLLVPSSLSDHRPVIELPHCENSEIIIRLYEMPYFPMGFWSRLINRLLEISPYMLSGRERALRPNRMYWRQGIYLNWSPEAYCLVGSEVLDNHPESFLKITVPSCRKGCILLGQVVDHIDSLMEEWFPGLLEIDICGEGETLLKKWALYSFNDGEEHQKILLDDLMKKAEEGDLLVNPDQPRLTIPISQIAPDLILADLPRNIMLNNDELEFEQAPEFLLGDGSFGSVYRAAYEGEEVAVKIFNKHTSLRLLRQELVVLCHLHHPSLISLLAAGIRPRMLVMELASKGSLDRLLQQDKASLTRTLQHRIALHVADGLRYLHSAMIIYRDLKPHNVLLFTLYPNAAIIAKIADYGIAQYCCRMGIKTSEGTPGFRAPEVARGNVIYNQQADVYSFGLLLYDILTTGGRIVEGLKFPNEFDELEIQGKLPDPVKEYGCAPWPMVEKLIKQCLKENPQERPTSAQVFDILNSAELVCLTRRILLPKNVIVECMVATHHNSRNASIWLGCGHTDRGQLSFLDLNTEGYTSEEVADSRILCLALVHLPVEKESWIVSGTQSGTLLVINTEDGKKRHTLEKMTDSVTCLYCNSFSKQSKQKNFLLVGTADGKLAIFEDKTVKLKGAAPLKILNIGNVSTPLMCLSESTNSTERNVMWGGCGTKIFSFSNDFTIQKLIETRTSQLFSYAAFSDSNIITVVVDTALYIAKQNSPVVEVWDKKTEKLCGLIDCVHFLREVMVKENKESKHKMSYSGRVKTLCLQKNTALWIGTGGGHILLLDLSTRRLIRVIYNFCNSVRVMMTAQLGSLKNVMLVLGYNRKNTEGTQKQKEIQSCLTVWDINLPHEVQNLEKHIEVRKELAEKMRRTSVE

[32] = target: Tyrosine-protein kinase Fyn (Homo sapiens, UniProt P06241)
[33] = target: Serine/threonine-protein kinase pim-2 (Homo sapiens, UniProt Q9P1W9);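 note: value comes from a broad kinase panel profiling study in which PIM2 was one of the panel members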
[34] = target: Vascular endothelial growth factor receptor 1 (Homo sapiens, UniProt P17948);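 note: measured within a kinome-wide profiling panel, FLT1 as the panel member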
[35] = target: Fibroblast growth factor receptor 3 (Homo sapiens, UniProt P22607)
[36] = target: Dual specificity tyrosine-phosphorylation-regulated kinase 1A (Homo sapiens, UniProt Q13627);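 note: measured against DYRK1A as one member of a broad kinome profiling panel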
[37] = target: Proto-oncogene tyrosine-protein kinase ROS (Homo sapiens, UniProt P08922);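 note: ROS1 tested as one member of a kinome-wide kinase panel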
[38] = target: Mitogen-activated protein kinase 1 (Homo sapiens, UniProt P28482)
[39] = target: Cyclin-dependent kinase 1 (Homo sapiens, UniProt P06493);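 note: Kinome-wide panel profiling, with the target listed as panel member CDC2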
[40] = target: cAMP-dependent protein kinase catalytic subunit alpha (Homo sapiens, UniProt P17612)
[41] = target: Dual specificity protein kinase CLK4 (Homo sapiens, UniProt Q9HAZ1)

SMILES: CCSc1ccc([C@@H]2[C@H]3C(=O)N(CC)C(=O)[C@H]3[C@]3(C(=O)OC)CCCCN23)cc1OC
- IC50 [1]: > 66.3 µM (inactive)
- IC50 [2]: > 49.8 µM (inactive)
- IC50 [3]: 2.65 µM (active)
- IC50 [4]: 12.4 µM (inactive)
- IC50 [5]: 6.4 µM (active)
- IC50 [6]: > 50 µM (inactive)

- Ki [7]: 6.31 µM (active)
- Ki [8]: 6.31 µM (active)
- Ki [9]: 7.94 µM (active)
- Ki [10]: 2 µM (active)
- Ki [11]: 3.98 µM (active)
- Ki [12]: 6.31 µM (active)
SMILES: CCCCOc1ccc(C(C)(C)CC)cc1S(=O)(=O)Nc1ccc(-c2csc3ncnc(N)c23)cc1

- Ki [13]: 7.94 µM (active)
- Ki [12]: 1.26 µM (active)
- Ki [14]: 6.31 µM (active)
SMILES: COc1cccc(-n2nc(C)c3c(=O)c4cc(Cl)ccc4n(O)c32)c1

SMILES: O=S(=O)(c1cccc2cnccc12)N1CCCNCC1 [FASUDIL]
- Ki [15]: > 1.58 µM (inactive)
- Ki [16]: 1.26 µM (active)
- pKi [16]: 5.9
- Ki [17]: > 3.98 µM (inactive)
- Ki [18]: > 1.58 µM (inactive)
- Ki [19]: > 5.01 µM (inactive)
- Ki [20]: > 1.58 µM (inactive)
- Ki [21]: > 1.58 µM (inactive)
- Ki [22]: > 1.58 µM (inactive)
- Ki [23]: > 1.58 µM (inactive)
- Ki [24]: > 5.01 µM (inactive)
- Ki [25]: > 7.94 µM (inactive)
- Ki [26]: > 1.58 µM (inactive)
- Ki [27]: > 0.631 µM (inactive)
- Ki [28]: > 2 µM (inactive)
- Ki [29]: > 1 µM (inactive)
- Ki [30]: > 1.26 µM (inactive)
- Ki [31]: 2 µM (active)
- pKi [31]: 5.7
- Ki [32]: > 0.794 µM (inactive)
- Ki [33]: > 1.58 µM (inactive)
- Ki [34]: > 0.398 µM (inactive)
- Ki [35]: > 2 µM (inactive)
- Ki [36]: > 1.26 µM (inactive)

- Ki [37]: 0.0126 µM (active)
- Ki [25]: > 7.94 µM (inactive)
- Ki [38]: 0.0631 µM (active)
- Ki [31]: 0.158 µM (active)
- Ki [12]: 0.0631 µM (active)
- Ki [39]: 0.0631 µM (active)
- Ki [40]: 0.158 µM (active)
- Ki [41]: 0.0631 µM (active)
SMILES: CN(c1ncccc1CNc1nc(Nc2ccc3c(c2)CC(=O)N3)ncc1C(F)(F)F)S(C)(=O)=O [PF-00562271]
